{
  "source": "patent US20070184165A1",
  "about": "“Compositions and methods for improving the efficiency of preservatives in foods” (RAD NATURAL TECHNOLOGIES LTD., priority 2003, published 2007)",
  "key": {"[1]": {"test": "Inhibition of oxidative deterioration in soybean oil at 180° C. (hexanal and trans-decadienal formed)", "details": "four hours, 0.02%", "description": "(c) Inhibition of oxidative deterioration in soybean oil at 180° C. (four hours) was determined by dissolving Origanox™ OS-A, rosemary oil or TBHQ in the soybean oil and determining the amount of hexanal and trans-decadienal formed in the product, compared with a control in which no antioxidant was used."}, "[2]": {"test_system": "mold", "test": "Deterioration of whole wheat flour due to mold, measured by carbon dioxide formation", "details": "for carbon dioxide formation: 22% moisture, 30° C.", "description": "Whole wheat flour which contained 22% moisture was maintained at a temperature of 30° C. The deterioration due to mold formation was measured by determining the amount (%) of carbon dioxide which formed over a ten day period or until the maximum of 15-16% was attained, whichever was the sooner."}, "[3]": {"test_system": "salmonella", "test": "Inhibition of salmonella growth", "assay_type": "cell-based", "details": "control growth at 8 hours = 100%", "description": "The inhibition of salmonella growth was determined for the title combination and this was compared with control (absence of inhibitors) and using separately, sodium rosmarinate and sodium acetate. The results are as follows, comparing the inhibition of growth effect of inhibitors, control growth being taken arbitrarily at 8 hours, as 100%: […]"}, "[4]": {"test": "Freshness of cured beef by formation of malondialdehyde", "description": "(d) Cured beef was treated with “Origanox™ WS-A” (b(ii), above). The thus-treated cured beef product contained approximately 32.5 ppm sodium rosmarinate and 500 ppm ascorbic acid. The higher proportion of ascorbic acid in this case was to inhibit the formation of toxic nitrosamines. The product was tested for freshness as evidenced by the formation of malondialdehyde after 1, 4 and 7 days, and compared with control (no treatment) and with other treatments."}, "[5]": {"test": "Myoglobin stabilization (colour intensity) in treated fresh beef", "details": "after seven days, 250 ppm", "description": "(c) Fresh beef was treated, by injection, with “Origanox™ WS-A” (b)(i), above. The thus-treated fresh beef product contained approximately 32.5 ppm sodium rosmarinate and 250 ppm ascorbic acid. The product was tested for myoglobin stabilization by measuring absorption, i.e. intensity of color, at 542 nm, after seven days."}},
  "data": [
    {"smiles": "CC(C)(C)c1cc(O)ccc1O", "note": "[TBHQ]", "values": [
      {"measurement": "% Inhibition", "setting": "[1]", "result": 32, "unit": "%"}
    ]},
    {"smiles": "CCC(=O)[O-].CCC(=O)[O-].[Ca+2]", "note": "[Ca propionate, calcium propionate]", "values": [
      {"measurement": "time until maximum % carbon dioxide (maximum deterioration) was reached", "setting": "[2]; 0.2%", "result": "7 to 8", "unit": "days"},
      {"measurement": "carbon dioxide formation", "setting": "[2]; Day 0, 0.2%", "result": 0.54, "unit": "%"},
      {"measurement": "carbon dioxide formation", "setting": "[2]; Day 1, 0.2%", "result": 0.81, "unit": "%"},
      {"measurement": "carbon dioxide formation", "setting": "[2]; Day 2, 0.2%", "result": 1.1, "unit": "%"},
      {"measurement": "carbon dioxide formation", "setting": "[2]; Day 3, 0.2%", "result": 1.3, "unit": "%"},
      {"measurement": "carbon dioxide formation", "setting": "[2]; Day 4, 0.2%", "result": 2.0, "unit": "%"},
      {"measurement": "carbon dioxide formation", "setting": "[2]; Day 5, 0.2%", "result": 3.2, "unit": "%"},
      {"measurement": "carbon dioxide formation", "setting": "[2]; Day 6, 0.2%", "result": 6.5, "unit": "%"},
      {"measurement": "carbon dioxide formation", "setting": "[2]; Day 7, 0.2%", "result": 14.6, "unit": "%"},
      {"measurement": "carbon dioxide formation", "setting": "[2]; Day 8, 0.2%", "result": 15, "unit": "%"}
    ]},
    {"smiles": "CC(=O)[O-].[Na+]", "note": "[Sodium acetate]", "values": [
      {"measurement": "% Growth", "setting": "[3]; 4 hours, 1.0%", "result": 33, "unit": "%"},
      {"measurement": "% Growth", "setting": "[3]; 4 hours, 2.0%", "result": 17, "unit": "%"},
      {"measurement": "% Growth", "setting": "[3]; 8 hours, 1.0%", "result": 75, "unit": "%"},
      {"measurement": "% Growth", "setting": "[3]; 8 hours, 2.0%", "result": 62, "unit": "%"}
    ]},
    {"smiles": "O=C(/C=C/c1ccc(O)c(O)c1)O[C@H](Cc1ccc(O)c(O)c1)C(=O)O", "note": "[sodium rosmarinate]", "values": [
      {"measurement": "Formation of malondialdehyde", "setting": "[4]; day 1, 32.5 ppm", "result": 0.798, "unit": "mg/kg"},
      {"measurement": "Formation of malondialdehyde", "setting": "[4]; day 4, 32.5 ppm", "result": 1.097, "unit": "mg/kg"},
      {"measurement": "Formation of malondialdehyde", "setting": "[4]; day 7, 32.5 ppm", "result": 1.327, "unit": "mg/kg"}
    ]},
    {"smiles": "O=C1O[C@H]([C@@H](O)CO)C(O)=C1O", "note": "[ascorbic acid]", "values": [
      {"measurement": "absorption at 542 nm", "setting": "[5]", "result": 0.513},
      {"measurement": "Formation of malondialdehyde", "setting": "[4]; day 1, 500 ppm", "result": 0.788, "unit": "mg/kg"},
      {"measurement": "Formation of malondialdehyde", "setting": "[4]; day 4, 500 ppm", "result": 1.224, "unit": "mg/kg"},
      {"measurement": "Formation of malondialdehyde", "setting": "[4]; day 7, 500 ppm", "result": 1.944, "unit": "mg/kg"}
    ]}
  ]
}
